Data published in patent publication US5214053A, “Thiourea derivatives and antimicrobial agent and antiulcer agent containing the same” (Terumo Kabushiki Kaisha, priority 1991, dated 1993).
≈ marks a conversion by molar mass, not a printed value. Where two headings read alike, the source gives them in different places.

Key:
Helicobacter pylori = experiment: Antimicrobial activity against Helicobacter pylori (MIC); type: cell-based, Helicobacter pylori strain NCTC 11916
Experimental: Antimicrobial Activity Against Helicobacter Pylori
Antimicorbial activity of the thiourea derivatives according to the invention against Helicobacter pylori (or Campylobacter pylori) was evaluated by employing strain NCTC 11916 as a Helicobacter test organism and determining MIC (minimum inhibitory concentration) of the thiourea derivative against Helicobacter pylori.
The Helicobacter pylori was pre-incubated in a plate medium for 3-5 days. […] These antibiotics were contained for inhibition of the growth of microorganisms with than Helicobacter pylori.
The Helicobacter pylori pre-incubated under slightly aerobic conditions (an O2 concentration of about 5%) at 37° C. for 3-5 days was suspended in a physiological saline solution in a concentration of approximately 10^8 organisms/ml. Approximately 10-20 μl of the suspension was inoculated on a medium for MIC measurement in cross streaks. […] The DMSO solution was formed by the twofold dilution method using sterilized distilled water. As in the pre-incubation, the Helicobacter pylori was cultured under slightly aerobic conditions at 37° C. for 3-5 days. After completion of the culture, growth of the microorganisms on the streaks was visually determined. […] The MIC of cemetidine, an antagonist to histamine was also measured for comparison.

[1] = test system: peptic ulcer induced by water immersion restrain stress; experiment: Inhibitory action against peptic ulcer induced by water immersion restrain stress; type: in vivo, SD male rats; settings: Rattus norvegicus, read-out: Inhibitory action against stress peptic ulcer, percent inhibition of peptic ulcer formation
Experimental: Inhibitory Action Against Peptic Ulcer Induced By Water Immersion Restrain Stress
SD male rats (weighing 200-300 g) were fasted for 24 hours before oral administration of a thiourea derivative of the invention at a dose of 32 mg/kg bodyweight. One hour later, the animal was put in a stress cage and loaded with water immersion restraint stress in a water bath at 23° C.
Seven hours after loading with the stress, the rat was sacrificed with ether, and the stomach was excised and treated with formalin. Area (mm^2) of the lesions developed in the glandular stomach area was then measured. Results were expressed in sum of the lesions per animal which was referred to as peptic ulcer index.
Percent inhibition of the peptic ulcer formation (%) as shown in the table was calculated according to the following equation: [formula]

ethanol peptic ulcer = experiment: Inhibitory action against ethanol peptic ulcer; type: in vivo, SD male rats; settings: Rattus norvegicus, read-out: Inhibitory action against ethanol peptic ulcer, percent inhibition of peptic ulcer formation
Experimental: Inhibitory Action Against Ethanol Peptic Ulcer
SD male rats (weighing 200-300 g) were fasted for 24 hours before oral administration of a thiourea derivative of the invention at a dose of 32 mg/kg bodyweight. One hour later, ethanol was orally given in a volume of 0.5 ml/100 g bodyweight. One hour after administering ethanol, the rat was sacrificed with ether, and the stomach was excised and treated with formalin. Area (mm^2) of the lesions developed in the glandular stomach area was then measured. Results were expressed in sum of the lesions per animal which was referred to as peptic ulcer index.
Percent inhibition of the peptic ulcer formation (%) as shown in the table was calculated according to the same equation as mentioned above.

[2] = NCTC11916, strain NCTC 11916, Mueller-Hinton agar with horse hemolysis solution, 37° C., 3-5 days, slightly aerobic (O2 about 5%), read-out: Antimicrobial activity against Helicobacter pylori, MIC (minimum inhibitory concentration)
[3] = SD male rats, oral, 32 mg/kg, 1 hour before stress, lesions measured 7 hours after loading with the stress
[4] = SD male rats, oral, 32 mg/kg, 1 hour before ethanol (0.5 ml/100 g), lesions measured 1 hour after ethanol

`CCN(CC)Cc1cccc(OCCCNC(=O)CCCNC(=S)Nc2ccc3c(c2)OCO3)c1` [Example 5, 1-[3-[N-[3-[3-(diethylaminomethyl)phenoxy]propyl]carbamoyl]propyl]-3-[(3,4-methylenedioxy)phenyl]thiourea] gave an MIC (Helicobacter pylori; [2]) of 12.5 µg/mL (≈ 25 µM), an inhibition in vivo at 32 mg/kg [1, 3] of 62% and an inhibition in vivo at 32 mg/kg (ethanol peptic ulcer; [4]) of 52%.
Work on `CNC(=NC#N)NCCSCc1nc[nH]c1C` [Cemetidine, reference compound] yielded an MIC (Helicobacter pylori; NCTC11916, read-out: Antimicrobial activity against Helicobacter pylori, MIC (minimum inhibitory concentration)) of at least 400 µg/mL, an inhibition in vivo at 32 mg/kg ([1]; po, 7 h) of 64% and an inhibition in vivo at 32 mg/kg (ethanol peptic ulcer; po, 1 h) of 16%.
For `O=C(CCCNC(=S)Nc1ccc2c(c1)OCO2)NCCCOc1cccc(CN2CCCCC2)c1` [Example 1, 1-[3-[N-[3-[3(piperidinomethyl)phenoxy]propyl]carbamoyl]propyl]-3-[(3,4methylenedioxy)phenyl] thiourea], the MIC (Helicobacter pylori; [2]) was 6.25 µg/mL (≈ 12.2 µM), the inhibition in vivo at 32 mg/kg [1, 3] was 80% and the inhibition in vivo at 32 mg/kg (ethanol peptic ulcer; [4]) was 67%.
Molecule `O=C(CCCNC(=S)Nc1ccc2c(c1)OCO2)NCCCOc1cc(CN2CCCCC2)ccn1` [Example 7] has an MIC (Helicobacter pylori; [2]) of 6.25 µg/mL (≈ 12.2 µM), an inhibition in vivo at 32 mg/kg [1, 3] of 78% and an inhibition in vivo at 32 mg/kg (ethanol peptic ulcer; [4]) of 63%.
`O=C(CCCCCNC(=S)Nc1ccc2c(c1)OCO2)NCCCOc1cccc(CN2CCCCC2)c1` [Example 6] was tested, and the MIC (Helicobacter pylori; [2]) was 6.25 µg/mL (≈ 11.6 µM), the inhibition in vivo at 32 mg/kg [1, 3] was 65% and the inhibition in vivo at 32 mg/kg (ethanol peptic ulcer; [4]) was 70%.
Molecule `O=C(CCCNC(=S)Nc1ccc2c(c1)OCO2)NCCCOc1cccc(CN2CCCC2)c1` [Example 3, 1-[3-[N-[3-[3-(pyrrolidinomethyl)phenoxy]propyl]carbamoyl]propyl]-3-[(3,4-methylenedioxy)phenyl]-thiourea] has an MIC (Helicobacter pylori; [2]) of 6.25 µg/mL (≈ 12.5 µM), an inhibition in vivo at 32 mg/kg [1, 3] of 68% and an inhibition in vivo at 32 mg/kg (ethanol peptic ulcer; [4]) of 61%.
Work on `O=C(CCCNC(=S)NCc1ccc2c(c1)OCO2)NCCCOc1cccc(CN2CCCCC2)c1` [Example 8] yielded an MIC (Helicobacter pylori; [2]) of 6.25 µg/mL (≈ 11.9 µM), an inhibition in vivo at 32 mg/kg [1, 3] of 82% and an inhibition in vivo at 32 mg/kg (ethanol peptic ulcer; [4]) of 78%.
In the case of `O=C(CCCNC(=S)Nc1ccc2c(c1)OCCO2)NCCCOc1cccc(CN2CCCCC2)c1` [Example 2, 1-[3-[N-[3-[3-(piperidinomethy)phenoxy]propyl]carbamoyl]propyl]-3-[(3,4-ethylenedioxy)phenyl]thiourea], the MIC (Helicobacter pylori; [2]) is reported as 6.25 µg/mL (≈ 11.9 µM), the inhibition in vivo at 32 mg/kg [1, 3] is reported as 76% and the inhibition in vivo at 32 mg/kg (ethanol peptic ulcer; [4]) is reported as 66%.
`CC1CCCN(Cc2cccc(OCCCNC(=O)CCCNC(=S)Nc3ccc4c(c3)OCO4)c2)C1` (stereo not drawn) [Example 4, 1-[3-[N-[3-[3((3-methylpiperidino)methyl)phenoxy]propyl]carbamoyl]propyl]-3-[(3,4-methylenedioxy)phenyl]thiourea] showed an MIC (Helicobacter pylori; [2]) of 6.25 µg/mL (≈ 11.9 µM), an inhibition in vivo at 32 mg/kg [1, 3] of 77% and an inhibition in vivo at 32 mg/kg (ethanol peptic ulcer; [4]) of 71%.
